Measured values: US20070105940A1, “Method for treating pain” (ALLERGAN, INC., priority 2005, published 2007)
Like-named read-outs stand apart in the source and are kept apart here.

Tests used:
[1] = test system: nociceptive response to formalin injected into the rat paw; experiment: Nociceptive response to formalin injected into the rat paw; format: in vivo
[2] = test system: chronic constrictory injury (CCI) of the sciatic nerve; experiment: CCI neuropathic pain, mechanical allodynia (Dynamic Plantar Anaesthesiometer, paw withdrawal threshold); format: in vivo, rat; conditions: CCI rats, i.p. for 7 days; AA-5-HT 5 mg/kg, URB-597 3 mg/kg; FIG. 3
Protocol: (§1) Neuropathic pain was induced by chronic constrictory injury (CCI) of the sciatic nerve. Rats were anaesthetized with sodium pentobarbital (60 mg/kg i.p.), the right sciatic nerve was exposed and four ligatures were loosely tied around the nerve just proximal to the trifurcation. Control rats underwent a sham surgery with exposure of the sciatic nerve without ligature.
(§2) Changes in thermal and mechanical nociceptive responses have been evaluated using a Plantar Test Apparatus and Dynamic Plantar Anaesthesiometer (Ugo Basile, Varese, Italy). Thermal paw withdrawal latency and mechanical paw withdrawal threshold (PWL and PWT) were measured (in sec and grams, respectively) for each group of rats every 30 min for 3 h.

[3] = test system: chronic constrictory injury (CCI) of the sciatic nerve; experiment: CCI neuropathic pain, thermal nociceptive response (Plantar Test, paw withdrawal latency); format: in vivo, rat; conditions: CCI rats, i.p. for 7 days; AA-5-HT 5 mg/kg, URB-597 3 mg/kg; FIG. 4
Protocol: as §1, §2

TRPV1 channels [4] = biological target: T1, TRPV1 channels (Homo sapiens, UniProt Q8NER1); experiment: Blocking of TRPV1 channel activation by capsaicin; format: cell-based; conditions: capsaicin 100 nM; FIG. 1A; read-out: IC50 against capsaicin
anandamide levels = experiment: Anandamide levels in the periaqueductal grey after intra-PAG injection; format: in vivo; conditions: 4 μg/rat intra-PAG, measured 20 min following injection
[5] = test system: fatty acid amide hydrolase (FAAH); experiment: FAAH inhibition in vitro; format: biochemical
Source text: Similar results were obtained with other congeners, provided that at least one double bond was present in the acyl chain.

[6] = test system: OFF cells of the rostral ventromedial medulla; experiment: Inhibitory effect of formalin on OFF cells of the rostral ventromedial medulla; format: in vivo, rat; conditions: FIG. 2B
TRPV1 channels [7] = biological target: T1, TRPV1 channels; conditions: read-out: IC50 against capsaicin, previously reported; cited from earlier work

T1 sequence (Q8NER1 whole entry): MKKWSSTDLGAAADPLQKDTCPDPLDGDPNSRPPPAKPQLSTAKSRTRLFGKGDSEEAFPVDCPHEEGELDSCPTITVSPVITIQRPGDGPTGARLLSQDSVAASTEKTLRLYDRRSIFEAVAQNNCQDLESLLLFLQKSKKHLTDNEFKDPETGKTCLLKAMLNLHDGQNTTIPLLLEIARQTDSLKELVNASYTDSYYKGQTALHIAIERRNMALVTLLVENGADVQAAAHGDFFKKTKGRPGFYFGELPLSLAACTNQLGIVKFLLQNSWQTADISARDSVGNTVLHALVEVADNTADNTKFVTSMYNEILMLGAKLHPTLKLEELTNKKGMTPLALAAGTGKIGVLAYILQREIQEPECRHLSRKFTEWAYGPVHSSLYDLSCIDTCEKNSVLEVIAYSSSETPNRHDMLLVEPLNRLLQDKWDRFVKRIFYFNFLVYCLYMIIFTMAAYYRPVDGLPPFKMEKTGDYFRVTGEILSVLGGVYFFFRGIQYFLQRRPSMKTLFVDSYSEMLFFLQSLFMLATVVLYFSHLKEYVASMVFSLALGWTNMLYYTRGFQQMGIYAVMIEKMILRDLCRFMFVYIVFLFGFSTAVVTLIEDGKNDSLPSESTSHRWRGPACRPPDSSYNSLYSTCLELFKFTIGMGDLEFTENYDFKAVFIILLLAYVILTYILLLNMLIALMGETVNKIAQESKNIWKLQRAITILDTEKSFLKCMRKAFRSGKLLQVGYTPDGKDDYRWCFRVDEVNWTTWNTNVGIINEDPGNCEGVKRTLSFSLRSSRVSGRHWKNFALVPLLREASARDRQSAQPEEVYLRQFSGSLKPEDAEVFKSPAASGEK

| SMILES | nociceptive response to formalin ([1]; 4 μg/rat injected into the periaqueductal grey (PAG), FIG. 2A) | nocifensive response to formalin ([1]; 1 mg/rat, s.c., injected into the paw) | mechanical allodynia [2] | thermal nociceptive responses [3] | IC50 (TRPV1 channels [4]) | anandamide levels in the PAG (anandamide levels) | type of FAAH inhibition [5] | less potent than URB-597 at inhibiting FAAH ([5]; in vitro) | inhibitory effect of formalin on the OFF cells of the rostral ventromedial medulla ([6]; supraspinal level) | effect on the anti-hyperalgesic effect of AA-5-HT ([1]; AA-5-HT 4 μg/rat intra-PAG, AM251 (nmol/rat), capsazepine 6 nmol/rat) | effect on the action of AA-5-HT injected into the paw ([1]; AA-5-HT 1 mg/rat s.c. into the paw) | IC50 (TRPV1 channels [7]) | effect on the action of AA-5-HT on OFF cells [6] |
| --- | --- | --- | --- | --- | --- | --- | --- | --- | --- | --- | --- | --- | --- |
| CCCCC/C=C\C/C=C\C/C=C\C/C=C\CCCC(=O)NCCc1c[nH]c2ccc(O)cc12 [AA-5-HT, N-arachidonoyl-serotonin] | potently inhibited both phases | selectively blocked the 2nd, inflammatory phase | totally abolished | as efficacious as URB-597 | 130 nM | elevated | mixed inhibitors | 100 fold | blocking the inhibitory effect of formalin |  |  |  |  |
| NC(=O)c1cccc(-c2cccc(OC(=O)NC3CCCCC3)c2)c1 [URB-597, reference compound] |  |  | ineffective | reducing thermal nociceptive responses |  |  |  |  |  |  |  |  |  |
| Oc1cc2c(cc1O)CN(C(=S)NCCc1ccc(Cl)cc1)CCC2 [capsazepine, reference compound] |  |  |  |  |  |  |  |  |  | occluded | occluded | 60 nM | occluded |
